Data reported in patent US20100168097A1, “Non-Nucleoside Reverse Transcriptase Inhibitors” (priority 2005, published 2010).
Like-named read-outs stand apart in the source and are kept apart here.

Tests used:
[1] = system: acute HIV infection of T-lymphoid cells; test: Assay for inhibition of HIV replication (spread assay); format: cell-based; settings: Human immunodeficiency virus 1; inhibition of HIV replication in T-lymphoid cells
Protocol: An assay for the inhibition of acute HIV infection of T-lymphoid cells (alternatively referred to herein as the “spread assay”) was conducted in accordance with Vacca, J. P. et al., Proc. Natl. Acad. Sci. USA 1994, 91: 4096. […] The compounds of Examples 2-4 and 22 were not tested.

[2] = target: T1, mutant HIV reverse transcriptase, Y181C mutation (Human immunodeficiency virus type 1 group M subtype B, UniProt P04585, Y768C); test: Analogous RT inhibition assay, Y181C mutant; format: biochemical
T1 construct: made in house
Protocol: (§1) 100 μL reaction mixtures were initiated with a combination of primer-template substrate (10 nM final concentration) and dNTPs (0.6 μM dNTPs, 0.75 μM [^3H]-dGTP). The heterodimeric nucleic acid substrate was generated by annealing the DNA primer pD500 (described in Shaw-Reid et al., J. Biol. Chem., 278: 2777-2780; obtained from Integrated DNA Technologies) to t500, a 500 nucleotide RNA template created by in vitro transcription (see Shaw-Reid et al., J. Biol. Chem., 278: 2777-2780). After 1 hour incubation at 37° C., reactions were quenched by 10 μL streptavidin scintillation proximity assay beads (10 mg/mL, from Amersham Biosciences) in 0.5 M EDTA, pH 8. Microtiter plates were incubated an additional 10 minutes at 37° C. prior to quantification via Topcount (Packard).
(§2) Analogous assays were conducted substituting mutant HIV strains to determine the […] inhibition of compounds of the present invention against mutant HIV reverse transcriptase. In one strain the reverse transcriptase has the Y181C mutation and in the other strain the reverse transcriptase has the K103N mutation. The mutations were generated with the […] site-directed mutagenesis kit (Stratagene).

[3] = target: T2, mutant HIV reverse transcriptase, K103N mutation (Human immunodeficiency virus type 1 group M subtype B, UniProt P04585, K690N); test: Analogous RT inhibition assay, K103N mutant; format: biochemical; settings: K103N mutant RT; tested up to 20 micromolar; read-out: IC50, K103N mutant assay
T2 construct: made in house
Protocol: as §1, §2

[4] = Y181C mutant RT, tested up to 20 micromolar, read-out: IC50, Y181C mutant assay

## O=S(=O)(c1c(-c2nc([C@H](O)[C@@H](O)[C@@H](O)CO)c[nH]2)[nH]c2ccc(Br)cc12)N1CCCC1 [Example 18, (1S,2R,3S)-1-{2-[5-bromo-3-(pyrrolidin-1-ylsulfonyl)-1H-indol-2-yl}-1H-imidazol-4-yl}butane-1,2,3,4-tetrol]
[1]
  IC95: < 1 µM
[2]
  IC50: 1 to 20 µM
[3]
  IC50: < 1 µM

## O=S(=O)(c1c(-c2nc(-c3ccc(N4CCOCC4)cc3)c[nH]2)[nH]c2ccc(Br)cc12)N1CCCC1 [Example 19, 5-bromo-2-[4-(4-morpholin-4-ylphenyl)-1H-imidazol-2-yl]-3-(pyrrolidin-1-ylsulfonyl)-1H-indole]
[1]
  IC95: < 1 µM
[2]
  IC50: > 20 µM
[3]
  IC50: < 1 µM

## CCC(OC)c1cnc(-c2[nH]c3ccc(Br)cc3c2S(=O)(=O)N2CCCC2)[nH]1 (centres unmarked) [Example 21, 5-bromo-2-[4-(1-methoxypropyl)-1H-imidazol-2-yl]-3-(pyrrolidin-1-ylsulfonyl)-1H-indole]
[1]
  IC95: < 1 µM
[2]
  IC50: 1 to 20 µM
[3]
  IC50: < 1 µM

## O=S(=O)(c1c(-c2nc(-c3ccc(F)cc3F)c[nH]2)[nH]c2ccc(Br)cc12)N1CCCC1 [Example 22, 5-bromo-2-[4-(2,4-difluorophenyl)-1H-imidazol-2-yl]-3-(pyrrolidin-1-ylsulfonyl)-1H-indole]
[2]; [4]
  IC50: > 20 µM
[3]
  IC50: < 1 µM

## O=S(=O)(c1c(-c2ncc(-c3ccccc3)[nH]2)[nH]c2ccc(Br)cc12)N1CCCC1 [Example 23, 5-bromo-2-(4-phenyl-1H-imidazol-2-yl)-3-(pyrrolidin-1-ylsulfonyl)-1H-indole]
[1]
  IC95: < 1 µM
[2]; [4]
  IC50: > 20 µM
[3]
  IC50: < 1 µM

## O=S(=O)(c1c(-c2nc(-c3ccc(Cl)cc3)c[nH]2)[nH]c2ccc(Br)cc12)N1CCCC1 [Example 24, 5-bromo-2-[4-(4-chlorophenyl)-1H-imidazol-2-yl]-3-(pyrrolidin-1-ylsulfonyl)-1H-indole]
[1]
  IC95: < 1 µM
[2]; [4]
  IC50: > 20 µM
[3]
  IC50: < 1 µM

## O=S(=O)(c1c(-c2nc(-c3ccc(F)cc3)c[nH]2)[nH]c2ccc(Br)cc12)N1CCCC1 [Example 25, 5-bromo-2-[4-(4-fluorophenyl)-1H-imidazol-2-yl]-3-(pyrrolidin-1-ylsulfonyl)-1H-indole]
[1]
  IC95: < 1 µM
[2]; [4]
  IC50: > 20 µM
[3]
  IC50: < 1 µM

## O=S(=O)(c1c(-c2nc(-c3ccc(F)c(F)c3)c[nH]2)[nH]c2ccc(Br)cc12)N1CCCC1 [Example 26, 5-bromo-2-[4-(3,4-difluorophenyl)-1H-imidazol-2-yl]-3-(pyrrolidin-1-ylsulfonyl)-1H-indole]
[1]
  IC95: < 1 µM
[2]; [4]
  IC50: > 20 µM
[3]
  IC50: < 1 µM

## O=S(=O)(c1c(-c2nc(-c3ccc(O)cc3)c[nH]2)[nH]c2ccc(Br)cc12)N1CCCC1 [Example 27, 4-{2-[5-bromo-3-(pyrrolidin-1-ylsulfonyl)-1H-indol-2-yl]-1H-imidazol-4-yl}phenol]
[1]
  IC95: < 1 µM
[2]; [4]
  IC50: 1 to 20 µM
[3]
  IC50: < 1 µM

## COc1ccc(-c2c[nH]c(-c3[nH]c4ccc(Br)cc4c3S(=O)(=O)N3CCCC3)n2)cc1 [Example 28, 5-bromo-2-[4-(4-methoxyphenyl)-1H-imidazol-2-yl]-3-(pyrrolidin-1-ylsulfonyl)-1H-indole]
[1]
  IC95: < 1 µM
[2]; [4]
  IC50: 1 to 20 µM
[3]
  IC50: < 1 µM

## O=S(=O)(c1c(-c2nc(-c3ccc4c(c3)OCO4)c[nH]2)[nH]c2ccc(Br)cc12)N1CCCC1 [Example 30, 2-[4-(1,3-benzodioxol-5-yl)-1H-imidazol-2-yl]-5-bromo-3-(pyrrolidin-1-ylsulfonyl)-1H-indole]
[1]
  IC95: < 1 µM
[2]; [4]
  IC50: 1 to 20 µM
[3]
  IC50: < 1 µM

## COC(=O)c1cc(-c2c[nH]c(-c3[nH]c4ccc(Br)cc4c3S(=O)(=O)N3CCCC3)n2)ccc1O [Example 31, methyl 5-{2-[5-bromo-3-(pyrrolidin-1-ylsulfonyl)-1H-indol-2-yl]-1H-imidazol-4-yl}-2-hydroxybenzoate]
[1]
  IC95: < 1 µM
[2]
  IC50: > 20 µM
[3]
  IC50: < 1 µM

## O=[N+]([O-])c1ccc(-c2c[nH]c(-c3[nH]c4ccc(Br)cc4c3S(=O)(=O)N3CCCC3)n2)cc1 [Example 32, 5-bromo-2-[4-(4-nitrophenyl)-1H-imidazol-2-yl]-3-(pyrrolidin-1-ylsulfonyl)-1H-indole]
[1]
  IC95: < 1 µM
[2]
  IC50: 1 to 20 µM
[3]
  IC50: < 1 µM

## N#Cc1ccc(-c2c[nH]c(-c3[nH]c4ccc(Br)cc4c3S(=O)(=O)N3CCCC3)n2)cc1 [Example 33, 4-{2-[5-bromo-3-(pyrrolidin-1-ylsulfonyl)-1H-indol-2-yl]-1H-imidazol-4-yl}benzonitrile]
[1]
  IC95: < 1 µM
[2]
  IC50: > 20 µM
[3]
  IC50: < 1 µM
